The values below come from patent US5457106A, “Pyridine derivatives, their production and use” (Takeda Chemical Industries, Ltd., priority 1991, dated 1995).

Structures can show the parent of a compound that is named as a salt.

One experiment addresses T1, cyclooxygenase (Rattus norvegicus, UniProt Q63921).
T1 construct: from tissue; host or cells: platelets in platelet-rich plasma from rat abdominal aorta blood (Jcl:wistar, male)
T1 sequence (Q63921 27-602): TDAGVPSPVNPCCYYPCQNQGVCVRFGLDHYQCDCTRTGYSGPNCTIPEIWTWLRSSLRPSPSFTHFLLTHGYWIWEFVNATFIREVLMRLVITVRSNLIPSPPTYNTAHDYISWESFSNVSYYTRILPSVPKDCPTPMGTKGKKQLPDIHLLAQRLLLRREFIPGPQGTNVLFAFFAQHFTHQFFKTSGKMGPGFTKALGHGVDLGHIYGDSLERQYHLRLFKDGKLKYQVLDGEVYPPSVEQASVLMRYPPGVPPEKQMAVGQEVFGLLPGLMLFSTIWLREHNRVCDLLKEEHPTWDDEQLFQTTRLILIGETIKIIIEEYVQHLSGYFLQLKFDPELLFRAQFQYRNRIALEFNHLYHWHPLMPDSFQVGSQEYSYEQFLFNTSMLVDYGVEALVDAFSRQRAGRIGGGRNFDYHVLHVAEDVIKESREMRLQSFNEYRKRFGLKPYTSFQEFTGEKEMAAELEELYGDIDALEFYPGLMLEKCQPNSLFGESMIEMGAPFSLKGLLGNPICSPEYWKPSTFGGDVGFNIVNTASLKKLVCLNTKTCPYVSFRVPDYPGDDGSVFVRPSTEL
As to the kind of experiment: Cyclooxygenase inhibitory activity (HHT formation from arachidonic acid in rat platelet-rich plasma). In kind it is cell-based, rat (Jcl:wistar).

Experiment [1] deals with Mouse phenylquinone writhing. As to the kind of experiment: Mouse phenylquinone writhing inhibitory activity. In kind it is in vivo, mouse (Slc: ICR). Particulars: 50 mg/kg, orally; for inhibition in vivo at 50 mg/kg: Mus musculus, po, 20 min, read-out: Inhibitory percentage (phenylquinone writhing). As to the method: Mouse Phenylquinone Writhing Inhibitory Activity A Slc: ICR male mouse (4 weeks, weight 17 to 24 g) was used. A test compound suspended in 5% gum arabic solution was administered orally. After 30 minutes, 0.1 ml/10 g body weight of 0.02% phenylquinone solution in water (dissolved by the aid of 5% ethanol) was injected intraperitoneally, and writhing and stretching responses of individual animals were measured for 20 minutes [Siegmund, E., Cadmus, R. and Lu, G.; Proc. Soc. exp. Biol. Med. 95, (1957)].
A general note: In writhing tests, fewer writhes than in controls are read as antinociception.

Experiment [2] relates to ART (antigen-responding T-cell). Put plainly: In vitro ART (antigen-responding T-cell) proliferation test. In kind it is cell-based, Lewis rat. Particulars: for inhibition at 1 µM / inhibition at 10 µM: Rattus norvegicus, T-cell, read-out: % Inhibition of ART growth.

As for `CCCCCCCCCC(=O)NCCSc1ccncc1` [Example 7], it took 4.4 µM to reach half-maximal inhibition against cyclooxygenase (IC50).
For the compound `CCCCCCCCCC(=O)NCCCCSc1ccncc1` [Example 8], the IC50 against cyclooxygenase stood at 1.1 µM.
On the same count and under the same terms, next, `CCCCCCCCCC(=O)NCCCCCSc1ccncc1` [Example 9]: 2.2 µM.
Still for that read-out and setting: next, `CCCCCCCCCC(=O)NCCCCCCSc1ccncc1` [Example 10]: 2.2 µM; `CCCC(=O)NCCCSc1ccncc1` [Example 14, 4-[3-(butyrylamino)propylthio]pyridine]: 13.2 µM; `CCCCCC(=O)NCCCSc1ccncc1` [Example 15, 4-[3-(hexanoylamino)propylthio]pyridine]: 5.1 µM.
As to `CCCCCCCC(=O)NCCCSc1ccncc1` [Example 16], the midpoint of inhibition on cyclooxygenase, the IC50, lay at 12.9 µM.
Still for that read-out and setting: next, `CCCCCCCCCCCCCC(=O)NCCCSc1ccncc1` [Example 18, 4-[3-(myristoylamino)propylthio] pyridine]: 7 µM.
As for `O=C(NCCCSc1ccncc1)C1CCCCC1` [Example 23, 4-[3-(cyclohexanoylamino)propylthio]pyridine hydrochloride], the inhibition in vivo at 50 mg/kg in experiment [1] was determined as 58%.
For the compound `O=C(NCCCSc1ccncc1)c1cccc2ccccc12` [Example 27, 4-[3-(1-naphthoylamino)propylthio]pyridine hydrochloride], it took 5.4 µM to reach half-maximal inhibition against cyclooxygenase (IC50).
Still for that read-out and setting: the figure for `COc1ccc(C(=O)NCCCSc2ccncc2)cc1` [Example 30, 4-[3-(4-methoxybenzoylamino)propylthio]pyridine] is 6.6 µM.
`CCCCc1ccc(C(=O)NCCCSc2ccncc2)cc1` [Example 34, 4-[3-(4-n-butylbenzoylamino)propylthio]pyridine hydrochloride]: the inhibition at 1 µM in experiment [2] (1 μM) came to 31%. In addition, the inhibition at 10 µM in experiment [2] was determined as 47%. At cyclooxygenase, half-maximal inhibition (IC50) required 2.9 µM.
In the case of `O=C(NCCCSc1ccncc1)c1ccccc1O` [Example 36, 4-[3-(salicyloylamino)propylthio]pyridine hydrochloride], 6 µM corresponded to half-maximal inhibition at cyclooxygenase (IC50).
Still for that read-out and setting: the figure for `O=C(CCCc1ccccc1)NCCCSc1ccncc1` [Example 39, 4-[3-(4-phenyl-n-butyrylamino)propylthio]pyridine] is 4.4 µM; for `O=C(/C=C/c1cnc2ccccc2c1)NCCCSc1ccncc1` [Example 44, 4-[3-(3-quinolineacryloylamino)propylthio]pyridine] it is 3.3 µM.
The same measure, in the same setting: the figure for `Cn1cccc1C(=O)NCCCSc1ccncc1` [Example 45, 4-[3-(1-methyl-2-pyrrolecarbonylamino)propylthio]pyridine] is 6.6 µM.
Consider `O=C(NCCCSc1cccnc1)c1cccs1` [Example 48, 3-[3-(thenoylamino)propylthio]pyridine], for which, in experiment [1], the inhibition in vivo at 50 mg/kg came to 31%.
At cyclooxygenase, `O=C(NCCCOc1ccccn1)c1cccs1` [Example 61, 2-[3-(2-thenoylamino)propyloxy]pyridine] registered a half-maximal inhibitory concentration (IC50) of 11 µM.
Turning to `O=C1c2ccccc2C(=O)N1COc1ccccn1` [Example 67, 2-(phthalimidomethyloxy)pyridine], the inhibition in vivo at 50 mg/kg in experiment [1] stood at 49%.
Regarding `CC(C)(C)C(=O)Nc1ncccc1SCN1C(=O)c2ccccc2C1=O` [Example 74, 3-(phthalimidomethylthio)-2-pivaloylaminopyridine], the inhibition at 1 µM in experiment [2] (1 μM) is -3%. In addition, the inhibition at 10 µM in experiment [2] was determined as 52%. In addition, in experiment [1], the inhibition in vivo at 50 mg/kg worked out at 51%.
With `CC(=O)N(CCCSc1ccncc1)Cc1ccccc1` [Example 75, 4-[3-(N-benzyl-N-acetylamino)propylthio]pyridine], the inhibition at 1 µM in experiment [2] (1 μM) was determined as 5%. For the same compound, the inhibition at 10 µM in experiment [2] was 45%. Further, in experiment [1], the inhibition in vivo at 50 mg/kg came to 54%.
Take `CC(=O)N(CCCSc1ccncc1)Cc1ccccn1` [Example 79, 4-[3-(N-2-pyridylmethyl-N-acetylamino)propylthio]pyridine]: the inhibition in vivo at 50 mg/kg in experiment [1] amounted to 48%.
For the compound `Cl.Cl.O=C(c1ccccc1)N(CCCSc1ccncc1)Cc1ccccn1` [Example 82, 4-[3-(N-2-pyridylmethyl-N-benzoylamino)propylthio]pyridine dihydrochloride], in experiment [1], the “Inhibitory percentage (phenylquinone writhing)” value turned out to be 47%.
`CC(C)(C)C(=O)NCCCOc1ccncc1` [Example 86, 4-(3-pivaloylaminopropyloxy) pyridine]: the inhibition in vivo at 50 mg/kg in experiment [1] was 51%.
In the case of `O=C(NCCCOc1ccncc1)c1cccnc1` [Example 87, 4-(3-nicotinoylaminopropyloxy)pyridine], the inhibition in vivo at 50 mg/kg in experiment [1] amounted to 47%.
In the case of `O=C(c1ccccc1)N(CCCSc1ccncc1)Cc1cccs1` [Example 92, 4-[3-(N-(2-thienylmethyl)-N-benzoylamino)propylthio]pyridine], the “Inhibitory percentage (phenylquinone writhing)” value in experiment [1] amounted to 74%.
In the case of `O=C1[C@H]2CC=CC[C@H]2C(=O)N1CSc1ccncc1` [Example 96, 4-[cis-(1,2,3,6-tetrahydrophthalimido)methylthio]pyridine], on cyclooxygenase, the half-inhibitory concentration (IC50) is 13 µM.
Same read-out and setting: next, `O=C1c2ccccc2C(O)N1CCCOc1ccncc1` (stereo not drawn) [Example 99, 4-[3-(3-hydroxyisoindolin-1-on-2-yl)propyloxy]pyridine]: 12 µM; `O=C(NCCCCSc1ccncc1)c1ccccc1CO` [Example 106, 4-[4-(2-hydroxymethylbenzoyl)aminobutylthio]pyridine]: 3.7 µM.
The same measure, in the same setting: the figure for `O=C1c2ccccc2C(O)N1CCCCSc1ccncc1` (stereo not drawn) [Example 107, 4-[4-(3-hydroxyisoindolin-1-on-2-yl)butylthio]pyridine] is 4.3 µM.
Take `O=C(NCCCOc1ccncc1)c1cc2ccccc2s1` [Example 115, 4-[3-(thianaphthene-2-carbonyl)aminopropyloxy]pyridine hydrochloride]: the inhibition at 1 µM in experiment [2] (1 μM) is 18%. Besides, the inhibition at 10 µM in experiment [2] worked out at 53%.
`O=C(c1ccccc1)N(CCOc1ccncc1)Cc1ccccc1` [Example 117, 4-[2-(N-benzyl-N-benzoyl)aminoethyloxy]pyridine]: in experiment [2] (1 μM), the “% Inhibition of ART growth” value stood at 3%. The inhibition at 10 µM in experiment [2] was 39%.
Turning to `O=C(N(CCSc1ccncc1)Cc1ccccc1)C(F)(F)F` [Example 119, 4-[2-(N-benzyl-N-trifluoroacetylamino)ethylthio]pyridine], the inhibition at 1 µM in experiment [2] (1 μM) turned out to be 13%. In addition, the inhibition at 10 µM in experiment [2] stood at 43%. On cyclooxygenase, this compound had an IC50 of 4.6 µM.
Consider `O=C(c1ccccc1)N(CCSc1ccncc1)Cc1ccccc1` [Example 120, 4-[2-(N-benzyl-N-benzoylamino)ethylthio]pyridine], for which the inhibition at 1 µM in experiment [2] (1 μM) amounted to 16%. The inhibition at 10 µM in experiment [2] is 74%.
`O=C(NCCSc1ccncc1)c1cccs1` [Example 122, 4-(2-thenoylaminoethylthio)pyridine] gave a concentration for half-maximal inhibition (IC50) against cyclooxygenase of 3.8 µM.
`CC1(C)NC(=O)N(CCCCSc2ccncc2)C1=O` [Example 140, 5,5-dimethyl-3-[4-(4-pyridylthio)butyl]hydantoin]: the inhibition at 1 µM in experiment [2] (1 μM) was -9%. Further, the inhibition at 10 µM in experiment [2] was -25%.
At cyclooxygenase, `O=C(NCCCCOc1ccncc1)c1ccccc1CO` [Example 148, 4-[4-(2-hydroxymethylbenzoyl)aminobutyloxy]pyridine] yielded a half-inhibitory concentration (IC50) of 3.1 µM.
On to `COc1ccc(C=C2SC(=O)N(CCCCSc3ccncc3)C2=O)cc1` [Example 152, 4-[4-[5-(4-methoxybenzylidene)-2,4-thiazolidinedione]butylthio]pyridine], for which, in experiment [2] (1 μM), the inhibition at 1 µM was -20%. Besides, in experiment [2], the inhibition at 10 µM is 68%.
For `O=C1SC(=Cc2ccccc2)C(=O)N1CCCSc1ccncc1` [Example 154, 4-[3-(5-benzylidene-2,4-thiazolidinedione)propylthio]pyridine], in experiment [2] (1 μM), the inhibition at 1 µM was determined as 16%. Besides, in experiment [2], the inhibition at 10 µM is 27%. For the same compound, on cyclooxygenase, inhibition was half-maximal at 6 µM (IC50).
As for `O=C1CSC(=O)N1CCCCSc1ccncc1` [Example 160, 4-[4-(2,4-thiazolidinedione)butylthio]pyridine], in experiment [2] (1 μM), the inhibition at 1 µM is -14%. The inhibition at 10 µM in experiment [2] turned out to be 33%.
The matching figures for `O=C1SC(=Cc2ccccc2)C(=O)N1CCCCSc1ccccn1` [Example 164, 2-[4-(5-benzylidene-2,4-thiazolidinedione)butylthio]pyridine]: 3% and -54%.
On cyclooxygenase, `O=C1c2ccccc2S(=O)(=O)N1CCCCSc1ccncc1` [Example 166, 4-(4-saccharinbutylthio)pyridine] came in with an IC50 of 12 µM.
The compound `O=C(NCCSc1ccncc1)c1ccccc1O` [Example 168, 4-[2-(2-hydroxybenzoyl)aminoethylthio]pyridine] displayed a half-inhibitory concentration (IC50) against cyclooxygenase of 3.6 µM.

Usually IC50 stands for the concentration needed to halve the response being measured. One may read the inhibition as the change of the read-out against control, counted positive when it falls.
